From patent publication US20260242419A1, “A CYCLIC PEPTIDE FOR TRAPPING INTERLEUKIN-1 BETA” (Merck Sharp & Dohme LLC, priority 2023, published 2026)
Starred links: 1 amine or outer side, 2 acyl side, 3 side chain; linkers in the order of their positions; H or OH if unused. Non-standard residues stand in square brackets, D forms with d. Residues, ends and D or L forms follow the SMILES beside them. dPro(4R-(4-pyridylmethyl)) = O=C(O)[C@H]1C[C@@H](Cc2ccncc2)CN1; Ala(piperidin-4-yl) = O=C([C@H](CC1CCN([*:3])CC1)N[*:1])[*:2]; Trp(βS-Me,4-F) = C[C@@H](c1c[nH]c2cccc(F)c12)[C@H](N)C(=O)O; Bip(4'-COOH) = N[C@@H](Cc1ccc(-c2ccc(C(=O)O)cc2)cc1)C(=O)O; Ala(1-bicyclo(1.1.1)pentyl) = N[C@@H](CC12CC(C1)C2)C(=O)O; dPro(4R-Bzl(4-F)) = O=C(O)[C@H]1C[C@@H](Cc2ccc(F)cc2)CN1; Trp(4-Cl) = N[C@@H](Cc1c[nH]c2cccc(Cl)c12)C(=O)O; X14 = O=C([C@H]1[C@@H](Cc2ccccc2)CCN1[*:1])[*:2]; Ala(pyrimidin-5-yl) = N[C@@H](Cc1cncnc1)C(=O)O; Phe(4-CONH2) = NC(=O)c1ccc(C[C@H](N)C(=O)O)cc1; Phe(4-COOH) = N[C@@H](Cc1ccc(C(=O)O)cc1)C(=O)O; X30 = O=C([C@@H](N[*:1])[C@H](O)c1ccncc1)[*:2]; Ala(4-Pyridazinyl) = N[C@@H](Cc1ccnnc1)C(=O)O; Bip = N[C@@H](Cc1ccc(-c2ccccc2)cc1)C(=O)O; Pro(cis-4-F) = O=C(O)[C@@H]1C[C@H](F)CN1; X45 = Cc1cc(C[C@H](N[*:1])C(=O)[*:2])no1; Ala(4-THP) = N[C@@H](CC1CCOCC1)C(=O)O; AEF = NCCOc1ccc(C[C@H](N)C(=O)O)cc1; Dap(CONH2) = NC(=O)NC[C@H](N)C(=O)O; d(αMeD) = C[C@@](N)(CC(=O)O)C(=O)O; 4Pal = N[C@@H](Cc1ccncc1)C(=O)O; αMeK = C[C@](N)(CCCCN)C(=O)O; dDab = NCC[C@@H](N)C(=O)O; hSer = N[C@@H](CCO)C(=O)O; αMeS = C[C@](N)(CO)C(=O)O; Dab = NCC[C@H](N)C(=O)O; Aib = CC(C)(N)C(=O)O

These compounds were tested against T1, IL-1β (Homo sapiens, UniProt P01584) (assay: IL-6 assay in MRC5 cells: inhibition of IL-1β induced IL-6 secretion (AlphaLISA)). Details: inhibition of IL-1β induced IL-6 secretion in MRC5 cells; compound pre-incubated 1 hour with recombinant human IL-1β; read-out: MRC5 IC50.
T1 construct: purchased BioLegend 579404
T1 sequence (P01584 117-269): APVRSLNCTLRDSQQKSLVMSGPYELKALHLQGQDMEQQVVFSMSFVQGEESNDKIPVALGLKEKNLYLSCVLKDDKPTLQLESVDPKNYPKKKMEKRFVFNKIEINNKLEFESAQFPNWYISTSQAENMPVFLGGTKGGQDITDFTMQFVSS
Format: cell-based
Summary of the method: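 Compound was pre-incubated 1 h at ambient temperature with recombinant human IL-1β at 2λ EC80 before adding human lung fibroblast MRC5 cells (3000/well) in EMEM with 0.025% BSA. After overnight culture at 37 °C, 5% CO2, secreted IL-6 in conditioned medium was measured by AlphaLISA; IC50 from 4-parameter logistic fits.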

| IC50 [nM] | SMILES |
| --- | --- |
| 0.013 | C[C@@H](c1c[nH]c2cccc(F)c12)[C@@H]1NC(=O)[C@@H]2C[C@H](F)CN2C(=O)CNC(=O)[C@H](Cc2ccc(C(=O)O)cc2)NC(=O)[C@H](Cc2ccncc2)NC(=O)[C@H](Cc2ccc(-c3ccc(C(=O)O)cc3)cc2)NC(=O)[C@H]2C[C@@H](Cc3ccncc3)CN2C(=O)CNC(=O)[C@H](CCN)NC(=O)[C@H](CCC(N)=O)NC(=O)[C@H](Cc2cncnc2)NC(=O)[C@@](C)(CC(=O)O)NC(=O)[C@H](Cc2c[nH]c3cccc(Cl)c23)NC(=O)[C@H](CO)NC(=O)C(C)(C)NC1=O [Example 251] (cyclo([Bip(4'-COOH)][4Pal][Phe(4-COOH)]G[Pro(cis-4-F)][Trp(βS-Me,4-F)][Aib]S[Trp(4-Cl)][d(αMeD)][Ala(pyrimidin-5-yl)]Q[Dab]G[dPro(4R-(4-pyridylmethyl))])) |
| 0.013 | C[C@@H](c1c[nH]c2cccc(F)c12)[C@@H]1NC(=O)[C@@H]2C[C@H](F)CN2C(=O)CNC(=O)[C@H](Cc2ccc(C(=O)O)cc2)NC(=O)[C@H](Cc2ccncc2)NC(=O)[C@H](Cc2ccc(-c3ccc(C(=O)O)cc3)cc2)NC(=O)[C@H]2C[C@@H](Cc3ccc(F)cc3)CN2C(=O)CNC(=O)[C@H](CCN)NC(=O)[C@H](CCC(N)=O)NC(=O)[C@H]([C@H](O)c2ccncc2)NC(=O)C(C)(C)NC(=O)[C@H](Cc2c[nH]c3ccccc23)NC(=O)[C@H](CO)NC(=O)C(C)(C)NC1=O [Example 273] (cyclo([Bip(4'-COOH)][4Pal][Phe(4-COOH)]G[Pro(cis-4-F)][Trp(βS-Me,4-F)][Aib]SW[Aib][X30]Q[Dab]G[dPro(4R-Bzl(4-F))])) |
| 0.03 | C[C@@H](c1c[nH]c2cccc(F)c12)[C@@H]1NC(=O)[C@@H]2C[C@H](F)CN2C(=O)CNC(=O)[C@H](Cc2ccc(C(=O)O)cc2)NC(=O)[C@H](Cc2ccncc2)NC(=O)[C@H](Cc2ccc(-c3ccccc3)cc2)NC(=O)[C@H]2C[C@@H](Cc3ccncc3)CN2C(=O)CNC(=O)[C@H](CNC(N)=O)NC(=O)[C@H](CCC(N)=O)NC(=O)[C@@H](CCN)NC(=O)[C@@](C)(CC(=O)O)NC(=O)[C@H](Cc2c[nH]c3ccccc23)NC(=O)[C@H](CO)NC(=O)C(C)(C)NC1=O [Example 247] (cyclo([Bip][4Pal][Phe(4-COOH)]G[Pro(cis-4-F)][Trp(βS-Me,4-F)][Aib]SW[d(αMeD)][dDab]Q[Dap(CONH2)]G[dPro(4R-(4-pyridylmethyl))])) |
| 0.014 | C[C@@H](c1c[nH]c2cccc(F)c12)[C@@H]1NC(=O)[C@@H]2C[C@H](F)CN2C(=O)CNC(=O)[C@H](Cc2ccc(C(=O)O)cc2)NC(=O)[C@H](Cc2ccncc2)NC(=O)[C@H](Cc2ccc(-c3ccccc3)cc2)NC(=O)[C@H]2C[C@@H](Cc3ccncc3)CN2C(=O)CNC(=O)[C@H](CCN)NC(=O)[C@H](CCC(N)=O)NC(=O)[C@H](CC2CCOCC2)NC(=O)[C@@](C)(CC(=O)O)NC(=O)[C@H](Cc2c[nH]c3ccccc23)NC(=O)[C@H](CO)NC(=O)C(C)(C)NC1=O [Example 294] (cyclo([Bip][4Pal][Phe(4-COOH)]G[Pro(cis-4-F)][Trp(βS-Me,4-F)][Aib]SW[d(αMeD)][Ala(4-THP)]Q[Dab]G[dPro(4R-(4-pyridylmethyl))])) |

Same assay, conditions: inhibition of IL-1β induced IL-6 secretion in MRC5 cells; read-out: MRC5 IC50

| SMILES | IC50 [nM] |
| --- | --- |
| CC(=O)NCCOc1ccc(C[C@@H]2NC(=O)[C@H]3C[C@@H](Cc4ccncc4)CN3C(=O)CNC(=O)[C@H](CCN)NC(=O)[C@H](CCC(N)=O)NC(=O)[C@H](Cc3cc(C)on3)NC(=O)C(C)(C)NC(=O)[C@H](Cc3c[nH]c4ccccc34)NC(=O)[C@H](CCC(=O)O)NC(=O)C(C)(C)NC(=O)[C@H]([C@@H](C)c3c[nH]c4cccc(F)c34)NC(=O)[C@@H]3C[C@H](F)CN3C(=O)CNC(=O)[C@H](Cc3ccc(C(=O)O)cc3)NC(=O)[C@H](Cc3ccncc3)NC2=O)cc1 [Example 315] (cyclo([AEF](Ac)[4Pal][Phe(4-COOH)]G[Pro(cis-4-F)][Trp(βS-Me,4-F)][Aib]EW[Aib][X45]Q[Dab]G[dPro(4R-(4-pyridylmethyl))])) | 0.018 |
| C[C@@H](c1c[nH]c2cccc(F)c12)[C@@H]1NC(=O)[C@@H]2C[C@H](F)CN2C(=O)CNC(=O)[C@H](Cc2ccc(C(=O)O)cc2)NC(=O)[C@H](Cc2ccncc2)NC(=O)[C@H](Cc2ccc(-c3ccc(C(=O)O)cc3)cc2)NC(=O)[C@H]2C[C@@H](Cc3ccc(F)cc3)CN2C(=O)CNC(=O)[C@H](CCN)NC(=O)[C@H](CCC(N)=O)NC(=O)[C@H](Cc2cncnc2)NC(=O)[C@](C)(CCCCN)NC(=O)[C@H](Cc2c[nH]c3ccccc23)NC(=O)[C@H](CCO)NC(=O)C(C)(C)NC1=O [Example 133] (cyclo([Bip(4'-COOH)][4Pal][Phe(4-COOH)]G[Pro(cis-4-F)][Trp(βS-Me,4-F)][Aib][hSer]W[αMeK][Ala(pyrimidin-5-yl)]Q[Dab]G[dPro(4R-Bzl(4-F))])) | 0.021 |
| C[C@@H](c1c[nH]c2cccc(F)c12)[C@@H]1NC(=O)[C@@H]2C[C@H](F)CN2C(=O)CNC(=O)[C@H](Cc2ccc(C(=O)O)cc2)NC(=O)[C@H](Cc2ccncc2)NC(=O)[C@H](Cc2ccc(-c3ccc(C(=O)O)cc3)cc2)NC(=O)[C@H]2C[C@@H](Cc3ccc(F)cc3)CN2C(=O)CNC(=O)[C@H](CCN)NC(=O)[C@H](CCC(N)=O)NC(=O)[C@H](Cc2ccnnc2)NC(=O)[C@@](C)(CC(=O)O)NC(=O)[C@H](Cc2c[nH]c3ccccc23)NC(=O)[C@H](CO)NC(=O)C(C)(C)NC1=O [Example 322] (cyclo([Bip(4'-COOH)][4Pal][Phe(4-COOH)]G[Pro(cis-4-F)][Trp(βS-Me,4-F)][Aib]SW[d(αMeD)][Ala(4-Pyridazinyl)]Q[Dab]G[dPro(4R-Bzl(4-F))])) | 0.013 |
| C[C@@H](c1c[nH]c2cccc(F)c12)[C@@H]1NC(=O)[C@@H]2C[C@H](F)CN2C(=O)CNC(=O)[C@H](Cc2ccc(C(=O)O)cc2)NC(=O)[C@H](Cc2ccncc2)NC(=O)[C@H](Cc2ccc(-c3ccc(C(=O)O)cc3)cc2)NC(=O)[C@H]2[C@@H](Cc3ccccc3)CCN2C(=O)CNC(=O)[C@H](CO)NC(=O)[C@H](CCC(N)=O)NC(=O)[C@H](Cc2cncnc2)NC(=O)C(C)(C)NC(=O)[C@H](Cc2c[nH]c3ccccc23)NC(=O)[C@H](CCC(=O)O)NC(=O)C(C)(C)NC1=O [Example 28] (cyclo([Bip(4'-COOH)][4Pal][Phe(4-COOH)]G[Pro(cis-4-F)][Trp(βS-Me,4-F)][Aib]EW[Aib][Ala(pyrimidin-5-yl)]QSG[X14])) | 0.023 |
| CC(=O)NCCOc1ccc(C[C@@H]2NC(=O)[C@H]3C[C@@H](Cc4ccncc4)CN3C(=O)CNC(=O)[C@H](CCN)NC(=O)[C@H](CCC(N)=O)NC(=O)[C@H](CC3CCOCC3)NC(=O)[C@@](C)(CC(=O)O)NC(=O)[C@H](Cc3c[nH]c4ccccc34)NC(=O)[C@H](CO)NC(=O)C(C)(C)NC(=O)[C@H]([C@@H](C)c3c[nH]c4cccc(F)c34)NC(=O)[C@@H]3C[C@H](F)CN3C(=O)CNC(=O)[C@H](Cc3ccc(C(N)=O)cc3)NC(=O)[C@H](Cc3ccncc3)NC2=O)cc1 [Example 377] (cyclo([AEF](Ac)[4Pal][Phe(4-CONH2)]G[Pro(cis-4-F)][Trp(βS-Me,4-F)][Aib]SW[d(αMeD)][Ala(4-THP)]Q[Dab]G[dPro(4R-(4-pyridylmethyl))])) | 0.04 |

Results, then the compound that gave them:

| IC50 [nM] | SMILES |
| --- | --- |
| 0.013 | C[C@@H](c1c[nH]c2cccc(F)c12)[C@@H]1NC(=O)[C@@H]2C[C@H](F)CN2C(=O)CNC(=O)[C@H](Cc2ccc(C(=O)O)cc2)NC(=O)[C@H](CC23CC(C2)C3)NC(=O)[C@H](Cc2ccc(-c3ccc(C(=O)O)cc3)cc2)NC(=O)[C@H]2C[C@@H](Cc3ccncc3)CN2C(=O)CNC(=O)[C@H](CO)NC(=O)[C@H](CCC(N)=O)NC(=O)[C@H](Cc2cncnc2)NC(=O)[C@@](C)(CC(=O)O)NC(=O)[C@H](Cc2c[nH]c3ccccc23)NC(=O)[C@H](CO)NC(=O)C(C)(C)NC1=O [Example 158] (cyclo([Bip(4'-COOH)][Ala(1-bicyclo(1.1.1)pentyl)][Phe(4-COOH)]G[Pro(cis-4-F)][Trp(βS-Me,4-F)][Aib]SW[d(αMeD)][Ala(pyrimidin-5-yl)]QSG[dPro(4R-(4-pyridylmethyl))])) |
| 0.036 | C[C@@H](c1c[nH]c2cccc(F)c12)[C@@H]1NC(=O)[C@@H]2C[C@H](F)CN2C(=O)CNC(=O)[C@H](Cc2ccc(C(=O)O)cc2)NC(=O)[C@H](CC23CC(C2)C3)NC(=O)[C@H](Cc2ccc(-c3ccc(C(=O)O)cc3)cc2)NC(=O)[C@H]2C[C@@H](Cc3ccncc3)CN2C(=O)CNC(=O)[C@H](CO)NC(=O)[C@H](CCC(N)=O)NC(=O)[C@H](CC2CCNCC2)NC(=O)C(C)(C)NC(=O)[C@H](Cc2c[nH]c3ccccc23)NC(=O)[C@H](CCC(=O)O)NC(=O)C(C)(C)NC1=O [Example 176] (cyclo([Bip(4'-COOH)][Ala(1-bicyclo(1.1.1)pentyl)][Phe(4-COOH)]G[Pro(cis-4-F)][Trp(βS-Me,4-F)][Aib]EW[Aib][Ala(piperidin-4-yl)]QSG[dPro(4R-(4-pyridylmethyl))])) |
| 0.036 | C[C@@H](c1c[nH]c2cccc(F)c12)[C@@H]1NC(=O)[C@@H]2C[C@H](F)CN2C(=O)CNC(=O)[C@H](Cc2ccc(C(=O)O)cc2)NC(=O)[C@H](CC23CC(C2)C3)NC(=O)[C@H](Cc2ccc(-c3ccc(C(=O)O)cc3)cc2)NC(=O)[C@H]2C[C@@H](Cc3ccc(F)cc3)CN2C(=O)CNC(=O)[C@H](CCN)NC(=O)[C@H](CCC(N)=O)NC(=O)[C@H](CO)NC(=O)C(C)(C)NC(=O)[C@H](Cc2c[nH]c3ccccc23)NC(=O)[C@H](CO)NC(=O)[C@](C)(CO)NC1=O [Example 97] (cyclo([Bip(4'-COOH)][Ala(1-bicyclo(1.1.1)pentyl)][Phe(4-COOH)]G[Pro(cis-4-F)][Trp(βS-Me,4-F)][αMeS]SW[Aib]SQ[Dab]G[dPro(4R-Bzl(4-F))])) |
